Earlier results in US20130171093A1, “HEALING POWDER AND METHOD OF USE THEREOF” (priority 2006, published 2013).

Tests used:
[1] = test system: full thickness wounds in the backs of pigs; settings: clean, non-infected pig wounds under Opsite
[2] = test system: acute mediastinitis wounds; settings: 19 patients, wounds packed every 3 to 4 hours

For `N=C(NCCCCCCNC(=N)NC(=N)Nc1ccc(Cl)cc1)NC(=N)Nc1ccc(Cl)cc1.O=C(O)[C@H](O)[C@@H](O)[C@H](O)[C@H](O)CO.O=C(O)[C@H](O)[C@@H](O)[C@H](O)[C@H](O)CO` [chlorhexidine gluconate 0.2%, chlorhexidine gluconate], the “wound healing / granulation tissue formation versus wounds covered with Opsite alone” value [1] is listed as “delayed healing”.
For `OC[C@H]1O[C@@](CO)(O[C@H]2O[C@H](CO)[C@@H](O)[C@H](O)[C@H]2O)[C@@H](O)[C@@H]1O` [granular sugar, sucrose], the “debridement of the wound” value [2] is listed as “near complete debridement” and the “eradication of bacterial infection, average time of treatment” value [2] is listed as 7.6 days.
